Article PMC12649535, “Development of New Antimicrobial Peptides by Directional Selection” (Antibiotics, 2025)
Ends that are not written are not given here.

Tests used:
Format in all cases: cell-based
Escherichia coli MG1655 = conditions: MG1655, 16 h
From the text: (§1) Peptides were synthesized on an automated Liberty Blue synthesizer (CEM Corp., Matthews, NC, USA) using solid-phase Fmoc chemistry with microwave-assisted heating. Two types of resin were selected for peptide synthesis to accommodate different molecular weights. Fmoc-Rink amide aminomethyl-polystyrene resin (ABCR GmbH & Co KG, Karlsruhe, Germany) with a loading capacity of 0.78 mmol/g was used for peptides with a molecular weight of up to 3 kDa. For peptides with a molecular weight exceeding 3 kDa, Fmoc-Rink amide PEG MBHA resin (ABCR GmbH & Co KG, Karlsruhe, Germany) with a loading capacity of 0.48 mmol/g was used. The target products were obtained with a purity of over 95% after purification of the peptides by reversed-phase HPLC on an AKTA Pure 25 M1 system (GE Healthcare Life Sciences, Chicago, IL, USA) equipped with a Zorbax SB-C18 column (Agilent Technologies, Santa Clara, CA, USA) and UV detection. All HPLC-spectra and HRMS-spectra are available at the Supplementary Materials (Figures S1–S23). The antimicrobial activity of synthetic peptides was measured using the standard microdilution method in microtiter plates. Peptides were dissolved in water to a concentration of 1 mM. Cultures of Bacillus subtilis 168 HT and Escherichia coli MG1655 were grown in a shaker at 30 °C in MHB medium (BD Difco, Thermo Fisher Scientific Inc., Waltham, MA, USA) for 16 h. The resulting cultures were diluted 1:50 in fresh MHB medium and grown in a shaker at 37 °C until reaching mid-logarithmic phase. The bacterial cultures were then further diluted in MHB to a concentration of 10^6 CFU/mL.
(§2) Peptides were serially twofold diluted in MHB in 96-well plates to final concentrations ranging from 100 to 0.2 µM, with a total volume of 50 µL per well. Subsequently, 50 µL of bacterial suspension (10^6 CFU/mL) was added to each well. Plates were incubated overnight at 37 °C. Each experiment included positive controls (melittin) and negative controls (without peptide). Antimicrobial activity was assessed by measuring the optical density at 600 nm (OD600) using a microplate reader AMR-100.

Bacillus subtilis 168 HT = conditions: 16 h
From the text: as §1, §2

Expi293F cells = experiment: Cytotoxicity, MTT assay; conditions: Figure 7 and text, 24 h, 200 to 0.0975 µM, NA = no activity within tested concentration range
Method: For the synthesized peptides, we determined the minimum inhibitory concentration (MIC) against B. subtilis (MICBs) and E. coli (MICEc) and measured cytotoxicity (IC90) in Expi293F cells (human embryonic kidney cells) using an MTT assay (Figure 7A–C, Tables S1–S4).
Peptide cytotoxicity was assessed using the MTT assay on Expi293F cells (human embryonic kidney cells) (Thermo Fisher Scientific, Waltham, MA, USA). Viable cells with active metabolism reduce water-soluble MTT (Abcam, Cambridge, UK) to insoluble formazan, while dead cells lose this ability and produce no signal. The absorbance measured at 600 nm is proportional to the number of living cells. Expi293F cells were seeded in 96-well plates at a density of 1 × 10^5 cells/mL. After 24 h, peptides were added to the wells at final concentrations ranging from 200 to 0.0975 µM. […] Cells were incubated with peptides in a CO2 incubator at 37 °C and 5% CO2 for 24 h. […] Peptide cytotoxicity was evaluated by measuring optical density at 600 nm and 690 nm using a microplate reader AMR-100. Normalized absorbance was defined as (OD600–OD690). The percentage of cell viability was calculated using the formula: % Cell viability = (ODtreated/ODtotal) × 100, where ODtreated is the normalized absorbance of treated cells and ODtotal is the normalized absorbance of non-treated (control) cells.

| Substance | MIC E. coli (Escherichia coli MG1655) | MIC B. subtilis (Bacillus subtilis 168 HT) | IC90 (cytotoxicity, concentration that inhibits 90% of cell growth) (Expi293F cells) |
| --- | --- | --- | --- |
| EKRWRRLIFNYF-NH2 [Hm-AMP2, reference compound] | 3.1 µM | 12.5 µM |  |
| EKDWPRRILYCF-NH2 [A2R3P10] |  | 50.0 µM |  |
| SWLSKTAKKLENSAKKRISEGIAIAIQGGPR-NH2 [cecropin, reference compound] | 0.4 µM |  | 200 µM |
| SFVCKTVKKMNNSAKKGFREGIALAIQGGPR-NH2 [CR2P8] | 6.2 µM | 25.0 µM |  |
| EKGRRRWIFYFF-NH2 [A2R3P7] | 12.5 µM | 25.0 µM |  |
| SLMFKTVKKMDNSVKKRFREGMAIAMQCGPR-NH2 [CR2P9] | 3.1 µM | 25.0 µM |  |
| SLMFKTVKKMDNSAKKRIREGIAIAIQGGPR-NH2 [CR1P5] | 6.2 µM |  |  |
| EIGWRRRICNYL-NH2 [A2R2P7] | 25.0 µM | 6.2 µM |  |
| EKGWLRRIFYCF-NH2 [A2R3P8] | 25.0 µM | 6.2 µM |  |
| SLIFKIVKKMDDIGKKRIREGIAIPLQGGPR-NH2 [CR2P7] | 50.0 µM |  |  |
| EKGWRRWIFNYF-NH2 [A2R1P5] | 6.2 µM | 6.2 µM |  |
| SLMFITVKKLDNSSRIRIRVGIAIAIQGGPR-NH2 [CR2P2] | 25.0 µM | 25.0 µM |  |
| EKGWRRWIFYCF-NH2 [A2R2P3] | 50.0 µM | 25.0 µM |  |
| EKGWRRWIFFSF-NH2 [A2R3P6] | 12.5 µM | 12.5 µM |  |
